System: c-Src
Experiment: c-Src immunoprecipitation in vitro kinase assay (auto-phosphorylation and enolase trans-phosphorylation)
Format: cell-based
Settings: serum-starved NIH 3T3 cells; PDGF 100 ng/ml for 5 min
Description: FIGS. 1A-1C Serum-starved NIH 3T3 cells were infected with AdCMV-X or -Xo viruses, c-Src or c-Fyn was immunoprecipitated, the pellet washed and assayed by incubation with the substrate enolase and [γ-^32P] ATP. Products were resolved by SDS-10%-PAGE then visualized and quantitiated by PhosphorImage analysis. c-Src (FIG. 1A) or c-Fyn (FIG. 1B) were immunoprecipitated 8 h p.i. from NIH 3T3 cell lysates expressing HBx or HBxo. Where indicated, cells were incubated with PDGF (100 ng/ml) for 5 min. (FIG. 1C) Transfected HBx activates c-Src in the cytoplasm. Chang cells were transfected with 10 μg pCMV-Xo (HBxo), PCMV-X (wt HBx) or pCMV-XNLS (nuclear HBx) expression plasmids, serum-starved for 24 h, c-Src immunoprecipitated and subjected to an in vitro trans-phosphorylation assay, then analyzed as above. […]
Src kinase assays were carried out essentially as described (Kypta et al., 1990, Cell 62:481-492). […] Src and Fyn kinase activity were measured by immunoprecipitating either Src (1 μg anti-Src antibodies) or Fyn (1 μg/ml anti-Fyn antibodies) from equal amounts of cell lysate. […] For the reactions containing the Src peptide substrate, TCA was added to a final concentration of 20%, an aliquot was spotted onto phosphocellulose paper (UBI), the filters were washed 3×5 minutes in 0.75% phosphoric acid and once in acetone, dried and analyzed by scintillation counting. […]

PDGF
activation of c-Src (auto- and trans-phosphorylation): 3-4 fold

From US6420338B1, “Inhibition of the Src kinase family pathway as a method of treating HBV infection and hepatocellular carcinoma” (New York University Medical Center, priority 1997, dated 2002)
